By IC50 is commonly meant the concentration needed to halve the response being measured. A high value points to weaker potency.

Molecules are shown by their SMILES. A value given as a limit tells only on which side of the number the result lay.

The target of this test is T1, Sphingomyelin phosphodiesterase 2 (Rattus norvegicus, UniProt Q9ET64).
T1 sequence (Q9ET64 whole entry): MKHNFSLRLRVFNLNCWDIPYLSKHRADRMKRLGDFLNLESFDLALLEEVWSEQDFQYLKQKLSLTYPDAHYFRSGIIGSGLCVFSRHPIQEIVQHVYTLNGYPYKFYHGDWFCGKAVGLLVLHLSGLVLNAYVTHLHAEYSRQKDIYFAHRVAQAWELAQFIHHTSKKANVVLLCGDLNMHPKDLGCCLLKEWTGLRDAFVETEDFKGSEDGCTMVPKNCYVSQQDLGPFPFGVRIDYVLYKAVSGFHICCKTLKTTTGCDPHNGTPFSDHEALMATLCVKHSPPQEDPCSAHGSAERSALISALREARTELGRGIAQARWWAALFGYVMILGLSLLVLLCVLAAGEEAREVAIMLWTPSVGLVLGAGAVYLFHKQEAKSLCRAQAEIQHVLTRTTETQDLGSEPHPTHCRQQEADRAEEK
Kind of test: Inhibitory activity against N-SMase (neutral magnesium- dependent-sphingomyelinase) using rat brain microsomes.
Turning to `CCCCCCCCCCCC[C@@H](O)[C@H](COC(=O)NCc1ccncc1)NC(=O)C(C)(C)C`, the IC50 is greater than 100 µM.
Regarding `CCCCCCCCCCCCC/C=C/[C@@H](O)[C@H](CNC(=O)NCc1ccncc1)NC(=O)C(C)(C)C`, the IC50 is 2.9 µM.
To `CCCCCCCCCCCCC/C=C/[C@@H](O)[C@H](CNC(=O)OCc1ccncc1)NC(=O)C(C)(C)C` belongs 58 µM; to `CCCCCCCCCCCCC/C=C/[C@@H](O)[C@H](COC(=O)N(O)Cc1ccncc1)NC(=O)C(C)(C)C`, 21 µM.
To `CCCCCCCCCCCCC/C=C/[C@@H](O)[C@H](COC(=O)NCc1ccncc1)NC(=O)C(C)(C)C` belongs 2.8 µM.
In turn, `CCCCCCCCCCCCC/C=C/[C@@H](O)[C@H](CNC(=S)NCc1ccncc1)NC(=O)C(C)(C)C` registered an IC50 of 45 µM.
`CCCCCCCCCCCCCCC/C=C/[C@@H](O)[C@H](COC(=O)NCc1ccncc1)NC(=O)C(C)(C)C`: the IC50 turned out to be 6.6 µM.
As to `CCCCCCCCCC/C=C/[C@@H](O)[C@H](COC(=O)NCc1ccncc1)NC(=O)C(C)(C)C`, the IC50 was 6.8 µM.
Consider `CCCCCCCCCCCCCCC[C@@H](O)[C@H](COC(=O)NCc1ccncc1)NC(=O)C(C)(C)C`, for which the IC50 was greater than 100 µM.

Source of the values: ChEMBL document CHEMBL1136313, “Biological evaluation of sphingomyelin analogues as inhibitors of sphingomyelinase” (Bioorg Med Chem Lett, 2003).
